# Experimental data taken from paper PMC11286772, “Structural basis of antagonist selectivity in endothelin receptors” (Cell Discovery, 2024).
# Where a chain is given by its changes, count along the chain named. Read-outs that look alike come from different tables or passages of the source.
# Key:
# Type in all cases: cell-based
# [1] = biological target: T1, ETA WT (Homo sapiens, UniProt P25101); assay: Calcium mobilization assay, antagonist mode (ET-1 stimulated), CHO-K1 cells
# T1 construct: expressed in transfected cells; host or cells: CHO-K1
# T1 sequence (P25101 21-427): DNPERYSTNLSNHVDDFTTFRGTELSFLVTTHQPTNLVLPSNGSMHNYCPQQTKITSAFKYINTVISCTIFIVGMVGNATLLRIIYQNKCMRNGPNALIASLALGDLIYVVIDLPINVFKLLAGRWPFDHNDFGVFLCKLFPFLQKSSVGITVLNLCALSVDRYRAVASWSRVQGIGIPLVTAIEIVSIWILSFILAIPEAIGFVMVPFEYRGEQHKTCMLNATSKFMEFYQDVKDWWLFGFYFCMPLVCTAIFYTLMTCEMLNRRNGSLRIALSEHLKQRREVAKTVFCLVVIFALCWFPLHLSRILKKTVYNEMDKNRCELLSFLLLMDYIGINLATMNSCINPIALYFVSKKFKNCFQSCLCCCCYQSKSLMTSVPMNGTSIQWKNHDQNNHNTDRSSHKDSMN
# Protocol: (§1) CHO-K1 cells were cultured in Ham’s F-12K (Kaighn’s) Medium (Gibco-Thermo Fisher Scientific) supplemented with 10% (v/v) fetal bovine serum (FBS; Gibco-Thermo Fisher Scientific), and 100 U/mL Penicillin-Streptomycin (Gibco-Thermo Fisher Scientific) in a humidified incubator at 37 °C with 5% CO2. Cells were seeded in 6-cm dishes overnight; when the density reached 60%–80%, the cells were transferred to F12K Medium supplemented with 10% FBS and transfected with 1.5 μg DNA encoding the ETA WT or mutants or 3 μg DNA encoding the ETB WT or mutants using TransIT2020 (Mirus Biosciences). The next day, transfected cells were harvested from the plate using Versene buffer (Gibco-Thermo Fisher Scientific) and seeded into black-sided, clear-bottomed 384-well plates (Agilent) at a density of 1,5000 cells per well. After 20 h, the 1% dFBS medium was removed, and cells were loaded with 20 μL/well of 1× Calcium 6 dye (Molecular Devices) and incubated at 37 °C for 1 h in the dark. […] All data were analyzed using GraphPad Prism 8 and the data are from at least three independent replicate experiments. All plots are shown as means ± SEM. Data were determined using one-way ANOVA followed by Dunnett’s multiple test compared with WT. The top value was normalized to 100% and the bottom value was normalized to 0% for the final presentation. Nonlinear curve fit was performed using a four-parameter logistic equation (log (agonist vs response) or log (inhibitor vs response)).
# [2] = biological target: T2, ETA L322^6.51A (Homo sapiens, UniProt P25101, L322A); assay: Calcium mobilization assay, antagonist mode
# T2 construct: expressed in transfected cells; host or cells: CHO-K1
# T2 sequence (P25101 21-427 L322A): T1 sequence (P25101 21-427) with L302A
# Protocol: as §1
# [3] = biological target: T3, ETA L259^5.42A (Homo sapiens, UniProt P25101, L259A); assay: Calcium mobilization assay, antagonist mode
# T3 construct: expressed in transfected cells; host or cells: CHO-K1
# T3 sequence (P25101 21-427 L259A): T1 sequence (P25101 21-427) with L239A
# Protocol: as §1
# [4] = biological target: T4, ETA Y129^2.53F (Homo sapiens, UniProt P25101, Y129F); assay: Calcium mobilization assay, antagonist mode
# T4 construct: expressed in transfected cells; host or cells: CHO-K1
# T4 sequence (P25101 21-427 Y129F): T1 sequence (P25101 21-427) with Y109F
# Protocol: as §1
# [5] = biological target: T5, ETA Y129^2.53A (Homo sapiens, UniProt P25101, Y129A); assay: Calcium mobilization assay, antagonist mode
# T5 construct: expressed in transfected cells; host or cells: CHO-K1
# T5 sequence (P25101 21-427 Y129A): T1 sequence (P25101 21-427) with Y109A
# Protocol: as §1
# [6] = biological target: T6, ETA R326^6.55A (Homo sapiens, UniProt P25101, R326A); assay: Calcium mobilization assay, antagonist mode
# T6 construct: expressed in transfected cells; host or cells: CHO-K1
# T6 sequence (P25101 21-427 R326A): T1 sequence (P25101 21-427) with R306A
# Protocol: as §1
# [7] = biological target: T7, ETA Y129^2.53H (Homo sapiens, UniProt P25101, Y129H); assay: Calcium mobilization assay, antagonist mode
# T7 construct: expressed in transfected cells; host or cells: CHO-K1
# T7 sequence (P25101 21-427 Y129H): T1 sequence (P25101 21-427) with Y109H
# Protocol: as §1
# [8] = biological target: T8, ETA Y263^5.46A (Homo sapiens, UniProt P25101, Y263A); assay: Calcium mobilization assay, antagonist mode
# T8 construct: expressed in transfected cells; host or cells: CHO-K1
# T8 sequence (P25101 21-427 Y263A): T1 sequence (P25101 21-427) with Y243A
# Protocol: as §1
# [9] = biological target: T9, ETA F161^3.28A (Homo sapiens, UniProt P25101, F161A); assay: Calcium mobilization assay, antagonist mode
# T9 construct: expressed in transfected cells; host or cells: CHO-K1
# T9 sequence (P25101 21-427 F161A): T1 sequence (P25101 21-427) with F141A
# Protocol: as §1
# [10] = biological target: T10, ETB V177^3.28F+H150^2.53Y (Homo sapiens, UniProt P24530, H150Y/V177F); assay: Calcium mobilization assay, antagonist mode
# T10 construct: expressed in transfected cells; host or cells: CHO-K1
# T10 sequence (P24530 27-442 H150Y/V177F): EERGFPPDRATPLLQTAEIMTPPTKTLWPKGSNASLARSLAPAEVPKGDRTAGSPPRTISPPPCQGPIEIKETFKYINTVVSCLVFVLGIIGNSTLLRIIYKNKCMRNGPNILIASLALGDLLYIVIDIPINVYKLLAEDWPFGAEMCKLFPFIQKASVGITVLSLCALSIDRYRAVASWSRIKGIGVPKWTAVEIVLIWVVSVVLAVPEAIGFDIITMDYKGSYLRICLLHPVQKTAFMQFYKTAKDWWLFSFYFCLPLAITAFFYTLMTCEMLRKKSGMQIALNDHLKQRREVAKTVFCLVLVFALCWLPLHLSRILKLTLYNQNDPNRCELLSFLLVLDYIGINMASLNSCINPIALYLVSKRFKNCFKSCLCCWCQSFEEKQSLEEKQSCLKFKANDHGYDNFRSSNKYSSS
# Protocol: as §1
# [11] = biological target: T11, ETB H150^2.53Y (Homo sapiens, UniProt P24530, H150Y); assay: Calcium mobilization assay, antagonist mode
# T11 construct: expressed in transfected cells; host or cells: CHO-K1
# T11 sequence (P24530 27-442 H150Y): T10 sequence (P24530 27-442 H150Y/V177F) with F151V
# Protocol: as §1
# [12] = CHO-K1 cells, n = 5, read-out: IC50, inhibition activity on ETA in calcium mobilization assay
# [13] = read-out: pIC50±S.E.M. (converted)
"IC50 [1, 12]","IC50 [1, 13]",IC50 [2],IC50 [3],IC50 [4],IC50 [5],IC50 [6],IC50 [7],IC50 [8],IC50 [9],SMILES,IC50 [10],IC50 [11]
0.0013 µM,0.00117 µM,0.347 µM,0.234 µM,0.0012 µM,1.02 µM,0.0363 µM,0.891 µM,0.0155 µM,0.0178 µM,"CCCNS(=O)(=O)Nc1ncnc(OCCOc2ncc(Br)cn2)c1-c1ccc(Br)cc1 [macitentan, N-[5-(4-bromophenyl)-6-[2-[(5-bromo-2-pyrimidinyl)oxy]ethoxy]-4-pyrimidinyl]-N’-propylsulfamide]",–,–
0.0006 µM,0.000389 µM,0.575 µM,15.5 µM,0.00234 µM,0.204 µM,7.94 µM,0.575 µM,0.813 µM,0.0891 µM,COC(c1ccccc1)(c1ccccc1)[C@H](Oc1nc(C)cc(C)n1)C(=O)O [ambrisentan],–,–
–,–,–,–,–,–,–,–,–,–,COc1nc(C)cnc1NS(=O)(=O)c1cccnc1-c1ccc(-c2nnco2)cc1 [zibotentan],33.1 µM,56.2 µM
